The text below walks through data of ChEMBL document CHEMBL1153451, “Novel aminopeptidase N inhibitors derived from antineoplaston AS2-5 (Part I)” (Bioorg Med Chem, 2009).

Molecules are shown by their SMILES. The source made the active and inactive calls. The calls are words filed in the database; no cut-off is given here.

In one assay the target is T1, Aminopeptidase N (Sus scrofa) (UniProt P15145).
T1 sequence (whole entry): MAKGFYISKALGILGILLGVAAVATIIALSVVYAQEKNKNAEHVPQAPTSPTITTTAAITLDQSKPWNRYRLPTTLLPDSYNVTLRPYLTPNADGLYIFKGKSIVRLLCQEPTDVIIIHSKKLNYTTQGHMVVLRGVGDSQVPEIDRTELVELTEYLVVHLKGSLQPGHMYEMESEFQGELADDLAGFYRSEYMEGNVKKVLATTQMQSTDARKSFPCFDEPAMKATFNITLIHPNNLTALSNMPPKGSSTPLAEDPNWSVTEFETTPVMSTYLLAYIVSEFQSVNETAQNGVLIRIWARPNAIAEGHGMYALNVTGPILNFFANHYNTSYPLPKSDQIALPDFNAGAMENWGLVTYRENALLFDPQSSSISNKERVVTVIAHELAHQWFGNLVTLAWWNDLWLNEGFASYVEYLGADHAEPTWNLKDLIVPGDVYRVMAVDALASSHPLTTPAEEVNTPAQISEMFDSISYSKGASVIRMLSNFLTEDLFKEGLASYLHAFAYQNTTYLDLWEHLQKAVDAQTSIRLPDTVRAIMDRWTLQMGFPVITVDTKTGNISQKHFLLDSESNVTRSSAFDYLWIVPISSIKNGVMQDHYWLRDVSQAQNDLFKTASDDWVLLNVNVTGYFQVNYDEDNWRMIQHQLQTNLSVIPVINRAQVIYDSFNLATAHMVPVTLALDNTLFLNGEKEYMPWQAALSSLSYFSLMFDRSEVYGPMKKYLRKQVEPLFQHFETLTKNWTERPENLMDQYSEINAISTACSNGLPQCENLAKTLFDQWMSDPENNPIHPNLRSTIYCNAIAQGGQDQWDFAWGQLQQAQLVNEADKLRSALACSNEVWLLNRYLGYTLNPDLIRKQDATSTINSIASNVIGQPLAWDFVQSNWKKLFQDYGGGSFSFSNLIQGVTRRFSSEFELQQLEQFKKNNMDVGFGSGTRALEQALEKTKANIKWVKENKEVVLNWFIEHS
Briefly: (§1) Inhibition of pig kidney microsome aminopeptidase N by UV-visible spectrophotometer.
Take `COc1cc(C(=O)N[C@H](CCC(=O)O)C(=O)Nc2ccc([N+](=O)[O-])cc2)cc(OC)c1OC`: the result was inactive.

For a further assay, the target named is T2, Aminopeptidase N (Sus scrofa, UniProt P15145).
T2 sequence (P15145 whole entry): T1 sequence (whole entry)
The assay is described as §1.
`COc1cc(C(=O)N[C@H](CCC(=O)O)C(=O)Nc2ccc(S(=O)(=O)Nc3nccs3)cc2)cc(OC)c1OC`: the IC50 (in general, the midpoint of a concentration-inhibition curve) was found to be 40.1 µM.
`COc1cc(C(=O)N[C@H](CCC(=O)O)C(=O)NCc2ccc(Br)cc2F)cc(OC)c1OC`: half-maximal inhibition (IC50) required 51.2 µM.
Still for that read-out and setting: then `COc1cc(C(=O)N[C@H](CCC(=O)O)C(=O)Nc2ccc(F)cc2)cc(OC)c1OC`, with 24.3 µM; and `COc1cc(C(=O)N[C@H](CCC(=O)O)C(=O)NCc2cccc(I)c2)cc(OC)c1OC`, with 65.9 µM.
`COc1cc(C(=O)N[C@H](CCC(=O)O)C(=O)NCc2cccc(Br)c2)cc(OC)c1OC` registered an IC50 of 177 µM.
Turning to `COc1cc(C(=O)N[C@H](CCC(=O)O)C(=O)Nc2ccc(C(=O)O)c(O)c2)cc(OC)c1OC`, the IC50 was found to be 57.8 µM.
Same read-out and setting: for `COc1cc(C(=O)N[C@H](CCC(=O)O)C(=O)NCc2ccc(Cl)cc2F)cc(OC)c1OC` the value was 45.6 µM.
On to `COc1cc(C(=O)N[C@H](CCC(=O)O)C(=O)Nc2ccc(Cl)cc2)cc(OC)c1OC`, for which the IC50 was found to be 40 µM.
On the same count and under the same terms, then `COc1cc(C(=O)N[C@H](CCC(=O)O)C(=O)NCCCl)cc(OC)c1OC`, with 805 µM; and `COc1cc(C(=O)N[C@H](CCC(=O)O)C(=O)Nc2ccc(F)cc2F)cc(OC)c1OC`, with 89.6 µM; and `COc1cc(C(=O)N[C@H](CCC(=O)O)C(=O)NNC(=O)c2cccnc2)cc(OC)c1OC`, with 72.4 µM.
`COc1cc(C(=O)N[C@H](CCC(=O)O)C(=O)Nc2cc(Cl)ccc2Cl)cc(OC)c1OC`: the IC50 was determined as 80.4 µM.
Same read-out and setting: then `COc1cc(C(=O)N[C@H](CCC(=O)O)C(=O)Nc2ccc(Br)cc2)cc(OC)c1OC`, with 41.9 µM; and `COc1cc(C(=O)N[C@H](CCC(=O)O)C(=O)NNC(=O)c2nccs2)cc(OC)c1OC`, with 87.7 µM; and `COc1cc(C(=O)N[C@H](CCC(=O)O)C(=O)Nc2ccc(S(N)(=O)=O)cc2)cc(OC)c1OC`, with 103 µM.
Take `COc1cc(C(=O)NC2CCC(=O)N(c3ccccc3N)C2=O)cc(OC)c1OC` (stereo not drawn): the IC50 stood at 104 µM.
The same measure, in the same setting: for `COc1cc(C(=O)N[C@H](CCC(=O)O)C(=O)Nc2nccs2)cc(OC)c1OC` the value was 108 µM; for `COc1cc(C(=O)N[C@H](CCC(=O)O)C(=O)Nc2ccc(F)c(Cl)c2)cc(OC)c1OC`, 78.5 µM; for `COc1cc(C(=O)N[C@H](CCC(=O)O)C(=O)Nc2ccc(C(=O)O)cc2)cc(OC)c1OC`, 65.8 µM.
Regarding `COc1cc(C(=O)N[C@H](CCC(=O)O)C(=O)Nc2ccc(N)cc2)cc(OC)c1OC`, the IC50 was determined as 23.4 µM.

The target in another assay is 72 kDa type IV collagenase (Homo sapiens, UniProt P08253). As to the kind of experiment: Inhibition of MMP2 by spectrophotometry.
Regarding `COc1cc(C(=O)N[C@H](CCC(=O)O)C(=O)Nc2ccc(S(=O)(=O)Nc3nccs3)cc2)cc(OC)c1OC`, it took 55.3 µM to reach half-maximal inhibition (IC50).
`COc1cc(C(=O)N[C@H](CCC(=O)O)C(=O)NCc2ccc(Br)cc2F)cc(OC)c1OC` came in with an IC50 of 76.1 µM.
Still for that read-out and setting: then `COc1cc(C(=O)N[C@H](CCC(=O)O)C(=O)Nc2ccc(F)cc2)cc(OC)c1OC`, with 26.1 µM.
Take `COc1cc(C(=O)N[C@H](CCC(=O)O)C(=O)Nc2ccc([N+](=O)[O-])cc2)cc(OC)c1OC`: the outcome was inactive.
In the case of `COc1cc(C(=O)N[C@H](CCC(=O)O)C(=O)NCc2cccc(I)c2)cc(OC)c1OC`, the half-maximal inhibitory concentration (IC50) is 76.8 µM.
With `COc1cc(C(=O)N[C@H](CCC(=O)O)C(=O)NCc2cccc(Br)c2)cc(OC)c1OC`, the IC50 was 287 µM.
Still for that read-out and setting: for `COc1cc(C(=O)N[C@H](CCC(=O)O)C(=O)Nc2ccc(C(=O)O)c(O)c2)cc(OC)c1OC` the value was 86.3 µM.
Molecule `COc1cc(C(=O)N[C@H](CCC(=O)O)C(=O)NCc2ccc(Cl)cc2F)cc(OC)c1OC` displayed an IC50 of 52.8 µM.
Regarding `CC(C)C[C@H](NC(=O)[C@@H](O)[C@H](N)Cc1ccccc1)C(=O)O` [UBENIMEX], the IC50 worked out at 40.5 µM.
Still for that read-out and setting: for `COc1cc(C(=O)N[C@H](CCC(=O)O)C(=O)Nc2ccc(Cl)cc2)cc(OC)c1OC` the value was 52.3 µM; for `COc1cc(C(=O)N[C@H](CCC(=O)O)C(=O)NCCCl)cc(OC)c1OC`, 501 µM; for `COc1cc(C(=O)N[C@H](CCC(=O)O)C(=O)Nc2ccc(F)cc2F)cc(OC)c1OC`, 109 µM.
The same measure, in the same setting: then `COc1cc(C(=O)N[C@H](CCC(=O)O)C(=O)NNC(=O)c2cccnc2)cc(OC)c1OC`, with 115 µM; and `COc1cc(C(=O)N[C@H](CCC(=O)O)C(=O)Nc2cc(Cl)ccc2Cl)cc(OC)c1OC`, with 122 µM; and `COc1cc(C(=O)N[C@H](CCC(=O)O)C(=O)Nc2ccc(Br)cc2)cc(OC)c1OC`, with 54.4 µM.
Consider `COc1cc(C(=O)N[C@H](CCC(=O)O)C(=O)NNC(=O)c2nccs2)cc(OC)c1OC`, for which the IC50 came out at 169 µM.
With `COc1cc(C(=O)N[C@H](CCC(=O)O)C(=O)Nc2ccc(S(N)(=O)=O)cc2)cc(OC)c1OC`, it took 628 µM to reach half-maximal inhibition (IC50).
On the same count and under the same terms, then `COc1cc(C(=O)NC2CCC(=O)N(c3ccccc3N)C2=O)cc(OC)c1OC` (stereo not drawn), with 660 µM; and `COc1cc(C(=O)N[C@H](CCC(=O)O)C(=O)Nc2nccs2)cc(OC)c1OC`, with 369 µM; and `COc1cc(C(=O)N[C@H](CCC(=O)O)C(=O)Nc2ccc(F)c(Cl)c2)cc(OC)c1OC`, with 107 µM.
Turning to `COc1cc(C(=O)N[C@H](CCC(=O)O)C(=O)Nc2ccc(C(=O)O)cc2)cc(OC)c1OC`, the IC50 was 71.2 µM.
In the case of `COc1cc(C(=O)N[C@H](CCC(=O)O)C(=O)Nc2ccc(N)cc2)cc(OC)c1OC`, the IC50 is 33.6 µM.
